Data set [1] deals with clathrin-mediated endocytosis. The data set is described as follows: Chlorpromazine inhibition of HCVcc and sf-HCVcc entry. Particulars: genotype 1-6 HCVcc and sf-HCVcc, cells pre-treated, up to 10 μg/mL. In kind it is cell-based, Human. Here is the method:
FIG. 11: Effect of chlorpromazine treatment on HCVcc and sf-HCVcc entry. (A-G) Chlorpromazine was diluted in DMEM+10% FBS to the concentrations indicated and then added to Huh7.5 cells, plated the previous day onto poly-D-lysine coated 96-well plates, and incubated for 30 minutes. HCVcc (black bars) were diluted in DMEM+10% FBS and sf-HCVcc (grey bars) were diluted in AEM+10% FBS and added to cultures. After 6 hours incubation, chlorpromazine-virus mixes were removed and DMEM+10% FBS was added. Cells were fixed 48 hours post infection and stained, and the number of single HCV NS5A positive cells per well was determined by automated counting as described in Materials and Methods. The HCV Core-E2 sequences of all virus stocks used were determined by direct sequencing. Sequences were identical for HCVcc and sf-HCVcc of the same recombinant. Compared to the plasmid sequence, H77(1a) viruses had acquired amino acid change I348S and J4(1b) had acquired amino acid change V710L, both estimated to be present in the majority of viral genomes. The % blocking was calculated by relating counts of experimental wells to the mean count of six replicate wells with untreated control virus. […] The % viability was calculated by relating absorbance at 490 nm determined for chlorpromazine treated cultures to the mean absorbance of three replicate untreated cultures. […]

Data set [2] deals with Huh7.5 cells. As to the kind of experiment: Chlorpromazine cytotoxicity (cell viability assay). In kind it is cell-based, Human. As to conditions: 6 hours treatment. Here is the method: For determination of Huh7.5 cell viability in DMEM+10% FBS versus AEM, we plated 6,000 cells per well of poly-D-lysine coated 96-well plates in DMEM+10% FBS. The following day, medium was removed and cells were incubated in DMEM+10% FBS or AEM for 48 hours. Then, cell viability was determined using the CellTiter 96® AQueous One Solution Cell Proliferation Assay kit (Promega) according to the manufacturer's instructions. The % viability was calculated by relating absorbance at 490 nm determined for 10 AEM cultures to the mean absorbance of 10 replicate DMEM+10% FBS cultures. For determination of chlorpromazine cytotoxicity, chlorpromazine was diluted in DMEM+10% FBS as specified and then added to 6,000 Huh 7.5 cells/well, plated the previous day in poly-D-lysine coated 96-well plates. Cells were incubated for 6 hours before chlorpromazine was removed and DMEM+10% FBS was added. Cell viability was determined 6 and 48 hours post-treatment using the CellTiter 96® AQueous One Solution Cell Proliferation Assay kit. The % viability was calculated by relating absorbance at 490 nm determined for chlorpromazine treated cultures to the mean absorbance of at least three replicate untreated cultures.

Data set [3] concerns Huh7.5 cells. As to the kind of experiment: Supernatant infectivity titration (FFU assay) after transfection, infection or serial passage, Example 2. The format is cell-based, Human. Particulars: both kinetics experiments (MOIs of 0.003 and 0.0003). As for the experimental part:
For transfection of Huh7.5 cells, 350,000 cells/well were seeded in 6-well plates (Nunc) and incubated for 24 hours. Plasmids (10 μg) were linearized by over-night digestion with XbaI (New England Biolabs). Linearized plasmids were purified using Wizard® SV Gel and PCR Clean-Up System (Promega). In vitro transcription was performed using T7 RNA polymerase (Promega) for 2 hours at 37° C. Transfection was performed by incubating 5 μL lipofectamine 2000 (Invitrogen) and the RNA transcripts in 500 μL serum-free Opti-MEM (Gibco/Invitrogen) for 20 minutes at room temperature. RNA-lipofectamine complexes were added to the pre-plated cells and incubated for 16-24 hours. Transfection efficiencies and culture spread were determined by HCV NS5A immunostaining (see below). […]
For infection of Huh7.5 cells in culture flasks, cells were seeded and incubated for 24 hours. When cells were evaluated to be ˜80% confluent, they were infected at a multiplicity of infection (MOI) of either 0.003 or 0.0003 for 3 hours (see Figure legends for details). […] Infection spread was monitored by HCV NS5A immunostaining (see below). […] For serum-free cultures, cells were infected in complete DMEM as described above and spread was monitored by NS5A immunostaining. […]
Culture supernatant infectivity titers were determined as Focus Forming Units (FFU)/mL. […]

For data set [4] the following is noted: serial passage by others; cited from earlier work.
Data set [5] relates to Huh7.5 cells. The data set is described as follows: Infectivity of virus diluted in different media (FIG. 7). Particulars: virus diluted in AEM prior to infection. In kind it is cell-based, Human.
Experimental: (A-C) Cells were incubated with virus mixes for 3 hours. After incubation, fresh DMEM+10% FBS was added to all wells. Cells were incubated for 48 hours before they were fixed, stained and the number of single HCV NS5A positive cells per well was determined by automated counting as described in Materials and Methods. Error bars represent SEM of triplicates. For (B), the mean infectivity (HCV NS5A positive cells/well) of triplicate wells of the reference culture (DMEM+10% FBS, black bar) was set to 100%. The number of HCV NS5A positive cells/experimental well was related to this mean to calculate % infectivity relative to the reference culture.

Several values for one entry are separate records, joined by “and”; a condition that tells them apart may be missing. Equal entries are not always repeated. Structures can show the parent of a compound that is named as a salt.

`CN(C)CCCN1c2ccccc2Sc2ccc(Cl)cc21` [chlorpromazine, chlorpromazine hydrochloride]: the blocking rates entry in data set [1] is listed as “up to 93%”. In data set [2], the “highest concentration not resulting in cytotoxic effects” value was 10 µg/mL.

For the compound J6/JFH1 [J6(2a)], the peak infectivity titers in data set [3] was 4.8 log 10 FFU/mL and 4.9 log 10 FFU/mL. Besides, the “peak infectivity titers of adapted stocks” value in data set [4] was 8 log 10 TCID50/mL and ~6.5 log 10 TCID50/mL. Besides, the “infectivity using AEM during the viral infection step (in words)” value in data set [5] is recorded as “infectivity was also reduced”.

The values are drawn from patent US10258687B2, “Development of methods for production of a whole virus vaccine candidate stock and novel adaptive mutations in hepatitis C virus” (Hvidovre Hospital, priority 2014, dated 2019).
